The values that follow come from patent publication US20190343846A1, “PREPARATION OF SOLID CYCLODEXTRIN COMPLEXES FOR OPHTHALMIC ACTIVE PHARMACEUTICAL INGREDIENT DELIVERY” (OCULIS SA, priority 2016, published 2019).

SMILES strings stand for the structures. In brackets after ≈: the same amount, converted by molar mass.

For data set [1] the following is noted: 25° C.; cited from earlier work.
Data set [2] can be described thus: Solubility of kinase inhibitors in pure water (S0) from phase-solubility profiles. It is filed as physicochemical. The conditions noted are these: for solubility: 25 °C, water, thermodynamic from solid, read-out: S0 (mg/mL), solubility in pure water.
Text: (§1) Kinase inhibitors were suspended in aqueous solutions containing from 1% (w/v) to 15% (w/v) γ-cyclodextrin.
Data set [3] is described as follows: Stability constant (K1:1) of active pharmaceutical ingredient/γ-cyclodextrin complexes from phase-solubility profiles. It is filed as physicochemical. The conditions noted are these: initial linear part of phase-solubility profile.
Text: as §1
A short description of data set [4]: Solubility of kinase inhibitors in aqueous γ-cyclodextrin media. It is filed as physicochemical. The conditions noted are these: aqueous with cosolvent or surfactant or cyclodextrin, thermodynamic from solid. As for the experimental part:
Kinase inhibitors were suspended in aqueous media consisting of pure water, aqueous γ-cyclodextrin solution, aqueous solution containing γ-cyclodextrin and tyloxapol (1% w/v), and aqueous eye drop medium containing γ-cyclodextrin, benzalkonium chloride (0.02% w/v), disodium edetate (0.10% w/v) and sodium chloride (0.05% w/v). The concentration of γ-cyclodextrin varied depending on the kinase inhibitor. The solubility was determined as described in Example 10.

The mark [5] stands for this setting: aqueous eye drop medium with 4% w/v γ-cyclodextrin, eye drop medium: 4 % w/v γ-cyclodextrin, benzalkonium chloride 0.02%, disodium edetate 0.10%, sodium chloride 0.05%, read-out: Solubility (mg/mL) Eye drops.
Setting [6] is: aqueous solution with 4 % w/v γ-cyclodextrin and tyloxapol (1% w/v), read-out: Solubility (mg/mL) Tyloxapol.
[7] abbreviates: aqueous γ-cyclodextrin solution, 4 % w/v γ-cyclodextrin, read-out: Solubility (mg/mL) γ-Cyclodextrin.

Take `OC[C@H]1O[C@@H]2O[C@H]3[C@H](O)[C@@H](O)[C@@H](O[C@H]4[C@H](O)[C@@H](O)[C@@H](O[C@H]5[C@H](O)[C@@H](O)[C@@H](O[C@H]6[C@H](O)[C@@H](O)[C@@H](O[C@H]7[C@H](O)[C@@H](O)[C@@H](O[C@H]1[C@H](O)[C@H]2O)O[C@@H]7CO)O[C@@H]6CO)O[C@@H]5CO)O[C@@H]4CO)O[C@@H]3CO` [α-cyclodextrin]: the “solubility in pure water” value in data set [1] was 129500 ± 700 µg/mL (≈ 133000 µM).

With `CN1CCN(c2ccc3nc(-c4c(N)c5c(F)cccc5[nH]c4=O)[nH]c3c2)CC1` [Dovitinib], in data set [2], the “S0 (mg/mL), solubility in pure water” value was 0.006 mg/mL. In data set [3], the “K1:1 (M^−1), stability constant of drug/γ-cyclodextrin complex” value (shortened to “K1:1 (M^−1), stability constant”) was determined as 680 M⁻¹.

Turning to `CNC(=O)c1ccccc1Sc1ccc2c(/C=C/c3ccccn3)n[nH]c2c1` [Axitinib], the solubility in data set [2] turned out to be 0.0004 mg/mL (≈ 1.03 µM); in data set [4] (setting [5]), 0.007 mg/mL (≈ 18.1 µM); in data set [4] (setting [6]), 0.008 mg/mL (≈ 20.7 µM); in data set [4] (setting [7]) it was 0.003 mg/mL (≈ 7.76 µM). Moreover, the “K1:1 (M^−1), stability constant” value in data set [3] worked out at 260 M⁻¹.

Take `CNC(=O)c1cc(Oc2ccc(NC(=O)Nc3ccc(Cl)c(C(F)(F)F)c3)c(F)c2)ccn1` [Regorafenib]: the solubility in data set [2] was 0.0001 mg/mL (≈ 0.207 µM); in data set [4] (setting [5]), 0.0008 mg/mL (≈ 1.66 µM); in data set [4] (setting [6]), 0.005 mg/mL (≈ 10.4 µM); in data set [4] (setting [7]) it was 0.0005 mg/mL (≈ 1.04 µM). The “K1:1 (M^−1), stability constant” value in data set [3] stood at 94 M⁻¹.

On to `Cc1ccc(Nc2nccc(N(C)c3ccc4c(C)n(C)nc4c3)n2)cc1S(N)(=O)=O` [Pazopanib], for which the solubility in data set [2] is 0.0006 mg/mL (≈ 1.37 µM); in data set [4] (aqueous eye drop medium with 16% w/v γ-cyclodextrin, eye drop medium: 16 % w/v γ-cyclodextrin, benzalkonium chloride 0.02%, disodium edetate 0.10%, sodium chloride 0.05%, read-out: Solubility (mg/mL) Eye drops) it was 0.01 mg/mL (≈ 22.9 µM); in data set [4] (aqueous solution with 16 % w/v γ-cyclodextrin and tyloxapol (1% w/v), read-out: Solubility (mg/mL) Tyloxapol), 0.006 mg/mL (≈ 13.7 µM); in data set [4] (aqueous γ-cyclodextrin solution, 16 % w/v γ-cyclodextrin, read-out: Solubility (mg/mL) γ-Cyclodextrin), 0.007 mg/mL (≈ 16 µM). Also, the “K1:1 (M^−1), stability constant” value in data set [3] amounted to 13 M⁻¹.

On to `COc1cc2c(Oc3ccc4[nH]c(C)cc4c3F)ncnc2cc1OCCCN1CCCC1` [Cediranib], for which the solubility is 1.2 mg/mL (≈ 2660 µM) in data set [2]; 4.1 mg/mL (≈ 9100 µM) in data set [4] (aqueous eye drop medium with 12% w/v γ-cyclodextrin, eye drop medium: 12 % w/v γ-cyclodextrin, benzalkonium chloride 0.02%, disodium edetate 0.10%, sodium chloride 0.05%, read-out: Solubility (mg/mL) Eye drops); 2.8 mg/mL (≈ 6220 µM) in data set [4] (aqueous solution with 12 % w/v γ-cyclodextrin and tyloxapol (1% w/v), read-out: Solubility (mg/mL) Tyloxapol); 2 mg/mL (≈ 4440 µM) in data set [4] (aqueous γ-cyclodextrin solution, 12 % w/v γ-cyclodextrin, read-out: Solubility (mg/mL) γ-Cyclodextrin). Besides, the “K1:1 (M^−1), stability constant” value in data set [3] was determined as 23 M⁻¹.

As to `OC[C@H]1O[C@@H]2O[C@H]3[C@H](O)[C@@H](O)[C@@H](O[C@H]4[C@H](O)[C@@H](O)[C@@H](O[C@H]5[C@H](O)[C@@H](O)[C@@H](O[C@H]6[C@H](O)[C@@H](O)[C@@H](O[C@H]7[C@H](O)[C@@H](O)[C@@H](O[C@H]8[C@H](O)[C@@H](O)[C@@H](O[C@H]9[C@H](O)[C@@H](O)[C@@H](O[C@H]1[C@H](O)[C@H]2O)O[C@@H]9CO)O[C@@H]8CO)O[C@@H]7CO)O[C@@H]6CO)O[C@@H]5CO)O[C@@H]4CO)O[C@@H]3CO` [γ-cyclodextrin], the “solubility in pure water” value in data set [1] was 249200 ± 200 µg/mL (≈ 192000 µM).

For the molecule `CC1(C)CNc2cc(NC(=O)c3cccnc3NCc3ccncc3)ccc21` [Motesanib], the solubility in data set [2] stood at 0.014 mg/mL (≈ 37.5 µM); in data set [4] (aqueous eye drop medium with 8% w/v γ-cyclodextrin, eye drop medium: 8 % w/v γ-cyclodextrin, benzalkonium chloride 0.02%, disodium edetate 0.10%, sodium chloride 0.05%, read-out: Solubility (mg/mL) Eye drops), 0.07 mg/mL (≈ 187 µM); in data set [4] (aqueous solution with 8 % w/v γ-cyclodextrin and tyloxapol (1% w/v), read-out: Solubility (mg/mL) Tyloxapol), 0.04 mg/mL (≈ 107 µM); in data set [4] (aqueous γ-cyclodextrin solution, 8 % w/v γ-cyclodextrin, read-out: Solubility (mg/mL) γ-Cyclodextrin) it was 0.09 mg/mL (≈ 241 µM). In data set [3], the “K1:1 (M^−1), stability constant” value was 140 M⁻¹.
